Results: ChEMBL document CHEMBL3593205, “Total Synthesis of 4,5-Didehydroguadiscine: A Potent Melanogenesis Inhibitor from the Brazilian Medicinal Herb, Hornschuchia obliqua” (J Nat Prod, 2015)
pIC50: −log10 of the molar value.

Tests used:
[1] = Cytotoxicity against mouse B16-4A5 cells assessed as cell viability at 10 uM after 72 hrs by MTT assay in presence of theophylline relative to control; format: cell-based; conditions: read-out: Activity
[2] = Potency index, ratio of arbutin IC50 to compound IC50 for inhibition of theophylline-stimulated melanogenesis in mouse B16-4A5 cells; format: functional
[3] = Cytotoxicity against mouse B16-4A5 cells assessed as cell viability at 3 uM after 72 hrs by MTT assay in presence of theophylline relative to control; format: cell-based; conditions: read-out: Activity
[4] = Inhibition of theophylline-stimulated melanogenesis in mouse B16-4A5 cells after 72 hrs by microplate reader analysis; format: functional, cell-based

pIC50 [4]: 5.33
Compound: COc1ccc2c(c1)C(C)(C)c1nccc3cc4c(c-2c13)OCO4
viability at 72 h, 10 µM [1]: 86.7% | Ratio IC50 [2]: 40 | viability at 72 h, 3 µM [3]: 95.7%
